Experimental data published in patent US4550186A, “Binuclear copper (II) carboxylates formed from amine-carboxyboranes” (Duke University, priority 1983, dated 1985).

Legend:
Fatty Acid Synthetase = target: T1, Fatty Acid Synthetase (Mus musculus, UniProt P19096); assay: In vivo liver enzyme study: fatty acid synthetase; settings: CF1 liver after 16 days i.p.
T1 construct: 10% homogenates of CF1 male mouse liver; from tissue; host or cells: CF1 male mouse liver, 10% homogenate
Protocol: In vitro enzymatic studies were determined using 10% homogenates of CF1 male mouse liver with 50-200 μM of test drugs. In vivo enzymatic studies were determined using 10% homogenates of liver from CF1 male mice obtained after administering the agents for 16 days at a dose ranging from 2.5-20 mg/kg/day intraperitoneally. The liver homogenates for both in vitro and in vivo studies were prepared in 0.25M sucrose and 0.001M (ethylenedinitrilo)tetraacetic acid. Acetyl coenzyme A synthetase and adenosine triphosphate dependent citrate lyase activities were determined spectrophotometrically at 540 nm as the hydroxylamate of acetyl coenzyme A formed after 30 min at 37° C. Mitochondrial citrate exchange was determined by the procedure of Robinson et al [Eur. J. Biochem., 216, 63 (1970)] using ^14 C-sodium bicarbonate (41 mCi/mmol) incorporated into mitochondrial ^14 C-citrate after isolating rat mitochondria (9000 g×10 min) from the homogenates. The exchanges of the ^14 C-citrate were determined after incubating the mitochondrial fraction which was loaded with labeled citrate and test drugs for 10 min. Then the radioactivity was measured in the mitochondrial and supernantant fractions in scintillation fluid and expressed as a percentage. Cholesterol side chain oxidation was determined by the method of Kritchevsky and Tepper [Artherosclerosis, 18, 93 (1973)] using (26-^14 C) cholesterol (50 mCi/mmol) and mitochondria isolated from rat liver homogenates. […] Fatty acid synthetase activity was determined by the method of Brady et al [J. Biol. Chem., 235, 3093 (1960)] using [2-^14 C] malonyl-coenzyme A (37.5 mCi/mmol) which was incorporated into newly synthesized fatty acids that were extracted with ether and counted. Acyl transferase activity was determined with glycerol-3phosphate [L-2-^3 H(N)] […] HCl and counted. Phosphatidate phosphohydrolase activity was measured as the inorganic phosphate released after 30 min from phosphatidic acid by the method of Mavis et al [J. Lipid Res., 19, 467 (1978)]. […]

Holtzman male rats [1] = assay: Cholesterol absorption study; assay type: in vivo, rat; settings: rats treated 14 days, over a 24-hr period
Protocol: Holtzman male rats (~400 g) were administered the test drug orally for 14 days at 10 mg/kg/day. On day 13, 10 μCi of 1,2-^3 H(N)-cholesterol (40.7 Ci/mmol) was administered to the rat orally. Twenty-four hours later, the blood was collected and the serum separated by centrifugation. Both the serum and the precipitate were counted.

Holtzman male rats [2] = assay: Plasma lipoprotein fractions; assay type: in vivo, rat; settings: 14 days 10 mg/kg/day orally
Protocol: […] On day 14, blood was collected from the abdominal aorta. Serum was separated from whole blood by centrifugation at 3500 rpm. Aliquots (3 ml) were separated by density gradient ultracentrifugation according to the method of Hatch and Lees [Adv. Lipid Res., 6, 33 (1968)] and Havel et al [J. Clin. Invest., 34, 1395 (1955)] into the chylomicrons,very low density lipoproteins, high density lipoproteins and low density lipoproteins. Each of the fractions was analyzed for cholesterol, triglyceride, neutral lipids, phospholipids and protein levels.
Data are expressed in the Table 2-7 as percent of control ± the standard deviation. The probable significant level (P) between each test group and the control group was determined by the Student's "t" test.

T1 sequence (P19096 whole entry): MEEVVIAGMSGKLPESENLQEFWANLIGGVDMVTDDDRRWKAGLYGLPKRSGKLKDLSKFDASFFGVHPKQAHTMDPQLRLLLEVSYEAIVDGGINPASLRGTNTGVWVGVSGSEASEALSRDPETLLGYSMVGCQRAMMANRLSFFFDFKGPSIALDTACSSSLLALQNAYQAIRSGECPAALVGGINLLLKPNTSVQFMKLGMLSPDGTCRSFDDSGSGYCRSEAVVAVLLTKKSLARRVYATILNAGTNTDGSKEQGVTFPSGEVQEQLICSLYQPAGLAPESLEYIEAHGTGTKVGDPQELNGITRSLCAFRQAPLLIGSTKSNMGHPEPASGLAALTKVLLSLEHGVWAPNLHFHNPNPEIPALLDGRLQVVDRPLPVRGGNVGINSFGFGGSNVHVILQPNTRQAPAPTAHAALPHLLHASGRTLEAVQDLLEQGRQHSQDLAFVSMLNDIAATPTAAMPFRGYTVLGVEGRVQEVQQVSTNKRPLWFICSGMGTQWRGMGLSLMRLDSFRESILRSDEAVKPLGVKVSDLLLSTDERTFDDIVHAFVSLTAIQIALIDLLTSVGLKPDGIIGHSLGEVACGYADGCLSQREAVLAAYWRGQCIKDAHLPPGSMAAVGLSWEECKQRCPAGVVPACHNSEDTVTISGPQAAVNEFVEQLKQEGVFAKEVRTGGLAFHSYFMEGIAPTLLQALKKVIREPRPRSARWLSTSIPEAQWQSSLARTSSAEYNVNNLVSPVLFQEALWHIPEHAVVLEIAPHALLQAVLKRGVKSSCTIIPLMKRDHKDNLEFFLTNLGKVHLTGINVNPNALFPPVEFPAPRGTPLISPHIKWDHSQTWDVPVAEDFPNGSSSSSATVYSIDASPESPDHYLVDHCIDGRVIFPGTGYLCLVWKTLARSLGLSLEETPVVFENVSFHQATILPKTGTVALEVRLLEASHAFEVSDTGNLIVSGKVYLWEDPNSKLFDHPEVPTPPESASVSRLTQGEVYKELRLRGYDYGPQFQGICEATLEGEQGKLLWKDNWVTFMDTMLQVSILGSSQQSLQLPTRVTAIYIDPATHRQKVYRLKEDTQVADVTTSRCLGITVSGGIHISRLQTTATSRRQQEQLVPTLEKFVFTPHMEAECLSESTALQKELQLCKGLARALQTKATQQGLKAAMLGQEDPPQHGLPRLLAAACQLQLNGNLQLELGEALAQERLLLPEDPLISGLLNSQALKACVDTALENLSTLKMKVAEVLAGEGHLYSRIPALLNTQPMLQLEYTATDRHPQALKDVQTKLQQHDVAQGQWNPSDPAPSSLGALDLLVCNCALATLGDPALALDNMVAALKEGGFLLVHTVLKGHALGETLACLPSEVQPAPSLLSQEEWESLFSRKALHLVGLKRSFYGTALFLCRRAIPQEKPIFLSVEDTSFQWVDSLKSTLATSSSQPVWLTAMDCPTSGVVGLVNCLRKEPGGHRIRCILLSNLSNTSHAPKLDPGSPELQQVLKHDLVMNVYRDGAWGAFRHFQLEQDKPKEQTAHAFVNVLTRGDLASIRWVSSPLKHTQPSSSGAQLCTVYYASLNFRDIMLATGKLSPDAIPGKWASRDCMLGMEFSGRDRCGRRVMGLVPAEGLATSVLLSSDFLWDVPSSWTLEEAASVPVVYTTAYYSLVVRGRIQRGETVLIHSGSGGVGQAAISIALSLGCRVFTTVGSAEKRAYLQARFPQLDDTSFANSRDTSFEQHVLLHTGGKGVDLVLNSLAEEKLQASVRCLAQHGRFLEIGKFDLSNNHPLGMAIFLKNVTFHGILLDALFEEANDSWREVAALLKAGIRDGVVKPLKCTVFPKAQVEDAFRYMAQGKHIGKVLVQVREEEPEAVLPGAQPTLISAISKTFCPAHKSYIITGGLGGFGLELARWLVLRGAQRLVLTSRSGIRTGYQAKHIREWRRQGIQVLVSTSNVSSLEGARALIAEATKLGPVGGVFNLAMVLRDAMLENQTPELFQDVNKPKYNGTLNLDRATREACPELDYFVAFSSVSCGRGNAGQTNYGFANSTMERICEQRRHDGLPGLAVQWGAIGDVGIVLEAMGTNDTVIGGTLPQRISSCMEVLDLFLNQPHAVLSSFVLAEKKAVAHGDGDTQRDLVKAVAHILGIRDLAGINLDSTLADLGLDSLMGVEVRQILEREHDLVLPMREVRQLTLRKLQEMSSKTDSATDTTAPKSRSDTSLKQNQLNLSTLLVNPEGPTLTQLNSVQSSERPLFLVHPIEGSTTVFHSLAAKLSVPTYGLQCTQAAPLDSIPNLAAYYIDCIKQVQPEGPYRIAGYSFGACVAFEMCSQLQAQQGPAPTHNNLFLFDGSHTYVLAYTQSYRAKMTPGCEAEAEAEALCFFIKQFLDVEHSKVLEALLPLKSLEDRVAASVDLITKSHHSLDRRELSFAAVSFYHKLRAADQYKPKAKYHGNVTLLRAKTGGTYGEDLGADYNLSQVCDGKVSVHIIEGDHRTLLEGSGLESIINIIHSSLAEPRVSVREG

**Q.** For “{Cu[(CH3)3 N.BH2 CO2 ]2.(CH3)3 N.BH2 COOH} [Compound I]”, which “Fatty Acid Synthetase” value (Fatty Acid Synthetase; 2.5 mg/kg) is on record?
**A.** Its value is 102 ± 7% of control.

**Q.** And the “Fatty Acid Synthetase” value (Fatty Acid Synthetase; 5.0 mg/kg)?
**A.** Its value is 90 ± 6% of control.

**Q.** And the “Fatty Acid Synthetase” value (Fatty Acid Synthetase; 10 mg/kg)?
**A.** Its value is 94 ± 5% of control.

**Q.** What about the “adsorption of orally administered 3H-cholesterol reduced” value (Holtzman male rats [1]) of the same substance?
**A.** The value was 85%.

**Q.** And the Cholesterol (Holtzman male rats [2]; rat serum Chylomicrons)?
**A.** Its Cholesterol is 88 ± 6 Percent Control.

**Q.** What about the “Neutral Lipids” value (Holtzman male rats [2]; rat serum Chylomicrons) of the same substance?
**A.** Its value is 67 ± 7 Percent Control.

**Q.** What about the Phospholipids (Holtzman male rats [2]; rat serum Chylomicrons) of the same substance?
**A.** The Phospholipids was 96 ± 6 Percent Control.

**Q.** And the Protein (Holtzman male rats [2]; rat serum Chylomicrons)?
**A.** The Protein was 99 ± 7 Percent Control.

**Q.** And the Triglyceride (Holtzman male rats [2]; rat serum Chylomicrons)?
**A.** Its Triglyceride is 58 ± 5 Percent Control.

**Q.** And the Cholesterol (Holtzman male rats [2]; rat serum HDL)?
**A.** The Cholesterol was 64 ± 5 Percent Control.

**Q.** And the “Neutral Lipids” value (Holtzman male rats [2]; rat serum HDL)?
**A.** Its value is 72 ± 8 Percent Control.

**Q.** What about the Phospholipids (Holtzman male rats [2]; rat serum HDL) of the same substance?
**A.** Its Phospholipids is 86 ± 7 Percent Control.

**Q.** What about the Protein (Holtzman male rats [2]; rat serum HDL) of the same substance?
**A.** The Protein was 108 ± 8 Percent Control.

**Q.** And the Triglyceride (Holtzman male rats [2]; rat serum HDL)?
**A.** The Triglyceride was 31 ± 5 Percent Control.

**Q.** And the Cholesterol (Holtzman male rats [2]; rat serum LDL)?
**A.** Its Cholesterol is 68 ± 6 Percent Control.

**Q.** What about the “Neutral Lipids” value (Holtzman male rats [2]; rat serum LDL) of the same substance?
**A.** Its value is 78 ± 7 Percent Control.

**Q.** And the Phospholipids (Holtzman male rats [2]; rat serum LDL)?
**A.** The Phospholipids was 105 ± 6 Percent Control.

**Q.** What about the Protein (Holtzman male rats [2]; rat serum LDL) of the same substance?
**A.** Its Protein is 101 ± 6 Percent Control.

**Q.** What about the Triglyceride (Holtzman male rats [2]; rat serum LDL) of the same substance?
**A.** Its Triglyceride is 70 ± 6 Percent Control.

**Q.** What about the Cholesterol (Holtzman male rats [2]; rat serum VLDL) of the same substance?
**A.** The Cholesterol was 32 ± 3 Percent Control.

**Q.** What about the “Neutral Lipids” value (Holtzman male rats [2]; rat serum VLDL) of the same substance?
**A.** The value was 62 ± 5 Percent Control.

**Q.** And the Phospholipids (Holtzman male rats [2]; rat serum VLDL)?
**A.** The Phospholipids was 100 ± 7 Percent Control.

**Q.** And the Protein (Holtzman male rats [2]; rat serum VLDL)?
**A.** Its Protein is 96 ± 7 Percent Control.

**Q.** What about the Triglyceride (Holtzman male rats [2]; rat serum VLDL) of the same substance?
**A.** The Triglyceride was 43 ± 4 Percent Control.
